Measured values from paper PMC9743148 (Annals of oncology : official journal of the European …, 2020).

Test system: patients with advanced solid tumors
Experiment: Treatment-emergent adverse events
Assay type: in vivo, human
[1] = Combined t.i.w. cohorts (n = 42)

SMILES: C=CC(=O)N1CC[C@H](n2nc(C#Cc3cc(OC)cc(OC)c3)c3c(N)ncnc32)C1 [futibatinib]
- AST increased TEAE, Grade 1 [1]: 1 (2) n (%)
- AST increased TEAE, Grade 2 [1]: 3 (7) n (%)
- AST increased TEAE, Grade 3 [1]: 0 (0) n (%)
- AST increased TEAE, Grade 4 [1]: 0 (0) n (%)
- Abdominal pain TEAE, Any grade [1]: 8 (19) n (%)
- Abdominal pain TEAE, Grade 1 [1]: 4 (10) n (%)
- Abdominal pain TEAE, Grade 2 [1]: 2 (5) n (%)
- Abdominal pain TEAE, Grade 3 [1]: 2 (5) n (%)
- Abdominal pain TEAE, Grade 4 [1]: 0 (0) n (%)
- Alopecia TEAE, Any grade [1]: 4 (10) n (%)
- Alopecia TEAE, Grade 1 [1]: 4 (10) n (%)
- Alopecia TEAE, Grade 2 [1]: 0 (0) n (%)
- Alopecia TEAE, Grade 3 [1]: 0 (0) n (%)
- Alopecia TEAE, Grade 4 [1]: 0 (0) n (%)
- Anemia TEAE, Any grade [1]: 13 (31) n (%)
- Anemia TEAE, Grade 1 [1]: 2 (5) n (%)
- Anemia TEAE, Grade 2 [1]: 8 (19) n (%)
- Anemia TEAE, Grade 3 [1]: 3 (7) n (%)
- Anemia TEAE, Grade 4 [1]: 0 (0) n (%)
- Any TEAE, Any grade [1]: 42 (100) n (%)
- Any TEAE, Grade 1 [1]: 3 (7) n (%)
- Any TEAE, Grade 2 [1]: 14 (33) n (%)
- Any TEAE, Grade 3 [1]: 20 (48) n (%)
- Any TEAE, Grade 4 [1]: 2 (5) n (%)
- Any treatment-related AE, Any grade [1]: 37 (88) n (%)
- Any treatment-related AE, Grade 1 [1]: 12 (29) n (%)
- Any treatment-related AE, Grade 2 [1]: 14 (33) n (%)
- Any treatment-related AE, Grade 3 [1]: 10 (24) n (%)
- Any treatment-related AE, Grade 4 [1]: 1 (2) n (%)
- Asthenia TEAE, Any grade [1]: 9 (21) n (%)
- Asthenia TEAE, Grade 1 [1]: 5 (12) n (%)
- Asthenia TEAE, Grade 2 [1]: 4 (10) n (%)
- Asthenia TEAE, Grade 3 [1]: 0 (0) n (%)
- Asthenia TEAE, Grade 4 [1]: 0 (0) n (%)
- Back pain TEAE, Any grade [1]: 3 (7) n (%)
- Back pain TEAE, Grade 1 [1]: 2 (5) n (%)
- Back pain TEAE, Grade 2 [1]: 1 (2) n (%)
- Back pain TEAE, Grade 3 [1]: 0 (0) n (%)
- Back pain TEAE, Grade 4 [1]: 0 (0) n (%)
- Constipation TEAE, Any grade [1]: 11 (26) n (%)
- Constipation TEAE, Grade 1 [1]: 10 (24) n (%)
- Constipation TEAE, Grade 2 [1]: 1 (2) n (%)
- Constipation TEAE, Grade 3 [1]: 0 (0) n (%)
- Constipation TEAE, Grade 4 [1]: 0 (0) n (%)
- Cough TEAE, Any grade [1]: 2 (5) n (%)
- Cough TEAE, Grade 1 [1]: 2 (5) n (%)
- Cough TEAE, Grade 2 [1]: 0 (0) n (%)
- Cough TEAE, Grade 3 [1]: 0 (0) n (%)
- Cough TEAE, Grade 4 [1]: 0 (0) n (%)
- Decreased appetite TEAE, Any grade [1]: 9 (21) n (%)
- Decreased appetite TEAE, Grade 1 [1]: 5 (12) n (%)
- Decreased appetite TEAE, Grade 2 [1]: 3 (7) n (%)
- Decreased appetite TEAE, Grade 3 [1]: 1 (2) n (%)
- Decreased appetite TEAE, Grade 4 [1]: 0 (0) n (%)
- Diarrhea TEAE, Any grade [1]: 17 (40) n (%)
- Diarrhea TEAE, Grade 1 [1]: 12 (29) n (%)
- Diarrhea TEAE, Grade 2 [1]: 5 (12) n (%)
- Diarrhea TEAE, Grade 3 [1]: 0 (0) n (%)
- Diarrhea TEAE, Grade 4 [1]: 0 (0) n (%)
- Dose reduction because of TEAE, Any grade [1]: 4 (10) n (%)
- Dose reduction because of TEAE, Grade 1 [1]: 0 (0) n (%)
- Dose reduction because of TEAE, Grade 2 [1]: 3 (7) n (%)
- Dose reduction because of TEAE, Grade 3 [1]: 1 (2) n (%)
- Dose reduction because of TEAE, Grade 4 [1]: 0 (0) n (%)
- Dosing delay/interruption because of TEAE, Any grade [1]: 21 (50) n (%)
- Dosing delay/interruption because of TEAE, Grade 1 [1]: 0 (0) n (%)
- Dosing delay/interruption because of TEAE, Grade 2 [1]: 6 (14) n (%)
- Dosing delay/interruption because of TEAE, Grade 3 [1]: 14 (33) n (%)
- Dosing delay/interruption because of TEAE, Grade 4 [1]: 1 (2) n (%)
- Dry eye TEAE, Any grade [1]: 2 (5) n (%)
- Dry eye TEAE, Grade 1 [1]: 2 (5) n (%)
- Dry eye TEAE, Grade 2 [1]: 0 (0) n (%)
- Dry eye TEAE, Grade 3 [1]: 0 (0) n (%)
- Dry eye TEAE, Grade 4 [1]: 0 (0) n (%)
- Dry mouth TEAE, Any grade [1]: 14 (33) n (%)
- Dry mouth TEAE, Grade 1 [1]: 13 (31) n (%)
- Dry mouth TEAE, Grade 2 [1]: 1 (2) n (%)
- Dry mouth TEAE, Grade 3 [1]: 0 (0) n (%)
- Dry mouth TEAE, Grade 4 [1]: 0 (0) n (%)
- Dry skin TEAE, Any grade [1]: 7 (17) n (%)
- Dry skin TEAE, Grade 1 [1]: 6 (14) n (%)
- Dry skin TEAE, Grade 2 [1]: 1 (2) n (%)
- Dry skin TEAE, Grade 3 [1]: 0 (0) n (%)
- Dry skin TEAE, Grade 4 [1]: 0 (0) n (%)
- Fatigue TEAE, Any grade [1]: 7 (17) n (%)
- Fatigue TEAE, Grade 1 [1]: 2 (5) n (%)
- Fatigue TEAE, Grade 2 [1]: 5 (12) n (%)
- Fatigue TEAE, Grade 3 [1]: 0 (0) n (%)
- Fatigue TEAE, Grade 4 [1]: 0 (0) n (%)
- Headache TEAE, Any grade [1]: 7 (17) n (%)
- Headache TEAE, Grade 1 [1]: 6 (14) n (%)
- Headache TEAE, Grade 2 [1]: 1 (2) n (%)
- Headache TEAE, Grade 3 [1]: 0 (0) n (%)
- Headache TEAE, Grade 4 [1]: 0 (0) n (%)
- Hypercalcemia TEAE, Any grade [1]: 5 (12) n (%)
- Hypercalcemia TEAE, Grade 1 [1]: 1 (2) n (%)
- Hypercalcemia TEAE, Grade 2 [1]: 1 (2) n (%)
- Hypercalcemia TEAE, Grade 3 [1]: 3 (7) n (%)
- Hypercalcemia TEAE, Grade 4 [1]: 0 (0) n (%)
- Hyperphosphatemia TEAE, Any grade [1]: 21 (50) n (%)
- Hyperphosphatemia TEAE, Grade 1 [1]: 7 (17) n (%)
- Hyperphosphatemia TEAE, Grade 2 [1]: 11 (26) n (%)
- Hyperphosphatemia TEAE, Grade 4 [1]: 0 (0) n (%)
- Hyperphosphatemia TEAE, grade 3 [1]: 3 (7) n (%)
- Hypomagnesemia TEAE, Any grade [1]: 5 (12) n (%)
- Hypomagnesemia TEAE, Grade 1 [1]: 4 (10) n (%)
- Hypomagnesemia TEAE, Grade 2 [1]: 1 (2) n (%)
- Hypomagnesemia TEAE, Grade 3 [1]: 0 (0) n (%)
- Hypomagnesemia TEAE, Grade 4 [1]: 0 (0) n (%)
- Hyponatremia TEAE, Any grade [1]: 5 (12) n (%)
- Hyponatremia TEAE, Grade 1 [1]: 1 (2) n (%)
- Hyponatremia TEAE, Grade 2 [1]: 0 (0) n (%)
- Hyponatremia TEAE, Grade 3 [1]: 4 (10) n (%)
- Hyponatremia TEAE, Grade 4 [1]: 0 (0) n (%)
- Nausea TEAE, Any grade [1]: 12 (29) n (%)
- Nausea TEAE, Grade 1 [1]: 11 (26) n (%)
- Nausea TEAE, Grade 2 [1]: 0 (0) n (%)
- Nausea TEAE, Grade 3 [1]: 1 (2) n (%)
- Nausea TEAE, Grade 4 [1]: 0 (0) n (%)
- Onycholysis TEAE, Any grade [1]: 5 (12) n (%)
- Onycholysis TEAE, Grade 1 [1]: 4 (10) n (%)
- Onycholysis TEAE, Grade 2 [1]: 1 (2) n (%)
- Onycholysis TEAE, Grade 3 [1]: 0 (0) n (%)
- Onycholysis TEAE, Grade 4 [1]: 0 (0) n (%)
- Pyrexia TEAE, Any grade [1]: 5 (12) n (%)
- Pyrexia TEAE, Grade 1 [1]: 4 (10) n (%)
- Pyrexia TEAE, Grade 2 [1]: 0 (0) n (%)
- Pyrexia TEAE, Grade 3 [1]: 1 (2) n (%)
- Pyrexia TEAE, Grade 4 [1]: 0 (0) n (%)
- Rash TEAE, Any grade [1]: 5 (12) n (%)
- Rash TEAE, Grade 1 [1]: 5 (12) n (%)
- Rash TEAE, Grade 2 [1]: 0 (0) n (%)
- Rash TEAE, Grade 3 [1]: 0 (0) n (%)
- Rash TEAE, Grade 4 [1]: 0 (0) n (%)
- Stomatitis TEAE, Any grade [1]: 5 (12) n (%)
- Stomatitis TEAE, Grade 1 [1]: 2 (5) n (%)
- Stomatitis TEAE, Grade 2 [1]: 1 (2) n (%)
- Stomatitis TEAE, Grade 3 [1]: 2 (5) n (%)
- Stomatitis TEAE, Grade 4 [1]: 0 (0) n (%)
- Treatment discontinuation because of TEAE, Any grade [1]: 1 (2) n (%)
- Treatment discontinuation because of TEAE, Grade 1 [1]: 0 (0) n (%)
- Treatment discontinuation because of TEAE, Grade 2 [1]: 0 (0) n (%)
- Treatment discontinuation because of TEAE, Grade 3 [1]: 1 (2) n (%)
- Treatment discontinuation because of TEAE, Grade 4 [1]: 0 (0) n (%)
- Urinary tract infection TEAE, Any grade [1]: 5 (12) n (%)
- Urinary tract infection TEAE, Grade 1 [1]: 0 (0) n (%)
- Urinary tract infection TEAE, Grade 2 [1]: 4 (10) n (%)
- Urinary tract infection TEAE, Grade 3 [1]: 1 (2) n (%)
- Urinary tract infection TEAE, Grade 4 [1]: 0 (0) n (%)
- Vomiting TEAE, Any grade [1]: 9 (21) n (%)
- Vomiting TEAE, Grade 1 [1]: 5 (12) n (%)
- Vomiting TEAE, Grade 2 [1]: 3 (7) n (%)
- Vomiting TEAE, Grade 3 [1]: 1 (2) n (%)
- Vomiting TEAE, Grade 4 [1]: 0 (0) n (%)
- Hyperphosphatemia TEAE, grade 3 (combined q.d. cohorts): 16%
- Hyperphosphatemia TEAE, any grade (combined q.d. cohorts, 30 of 44 patients): 68%
- Hyperphosphatemia TEAE, grade 3 (combined t.i.w. cohorts): 7%
- Hyperphosphatemia TEAE, any grade (combined t.i.w. cohorts, 21 of 42 patients): 50%
- Patients with grade ≥3 TEAEs (overall population): > 50%
- Grade 3 hyponatremia TEAE (overall population (n = 86)): 7%
- Hyperphosphatemia leading to dose reductions (overall population (n = 86)): 6%
- Hyperphosphatemia leading to dosing interruptions (overall population (n = 86)): 17%
- Patients with grade 3 TEAEs (overall population (n = 86)): 48%
- Patients with grade 4 TEAEs (overall population (n = 86)): 6%
- Patients with treatment-related grade 3 AEs (overall population (n = 86)): 30%
- TEAEs leading to treatment discontinuations (overall population (n = 86)): 3%
- Treatment-related deaths (overall population (n = 86)): No treatment-related deaths
